Test results as given in patent US20160214956A1, “NOVEL SOLUBLE GUANYLATE CYCLASE ACTIVATORS AND THEIR USE” (GLAXOSMITHKLINE INTELLECTUAL PROPERTY DEVELOPMENT LIMITED, priority 2013, published 2016).

Biological target: T1, human sGC (Homo sapiens, UniProt Q02153)
T1 sequence (Q02153 1-619): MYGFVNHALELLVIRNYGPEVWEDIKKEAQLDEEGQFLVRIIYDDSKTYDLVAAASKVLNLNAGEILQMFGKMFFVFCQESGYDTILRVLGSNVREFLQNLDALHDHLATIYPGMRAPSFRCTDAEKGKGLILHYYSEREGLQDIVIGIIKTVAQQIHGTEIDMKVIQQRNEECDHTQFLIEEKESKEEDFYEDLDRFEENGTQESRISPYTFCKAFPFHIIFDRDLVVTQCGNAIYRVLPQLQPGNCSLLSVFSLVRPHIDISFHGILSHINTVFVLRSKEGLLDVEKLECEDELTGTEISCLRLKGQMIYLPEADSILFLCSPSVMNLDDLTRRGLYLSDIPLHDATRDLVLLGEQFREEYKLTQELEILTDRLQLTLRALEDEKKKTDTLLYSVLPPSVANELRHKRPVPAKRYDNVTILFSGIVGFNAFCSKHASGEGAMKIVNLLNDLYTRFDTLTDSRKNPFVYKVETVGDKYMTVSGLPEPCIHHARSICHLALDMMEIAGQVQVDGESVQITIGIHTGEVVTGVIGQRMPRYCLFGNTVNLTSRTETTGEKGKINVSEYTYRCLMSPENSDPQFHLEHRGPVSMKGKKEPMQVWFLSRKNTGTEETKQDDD
T1 sequence (Q02108 1-690 partner): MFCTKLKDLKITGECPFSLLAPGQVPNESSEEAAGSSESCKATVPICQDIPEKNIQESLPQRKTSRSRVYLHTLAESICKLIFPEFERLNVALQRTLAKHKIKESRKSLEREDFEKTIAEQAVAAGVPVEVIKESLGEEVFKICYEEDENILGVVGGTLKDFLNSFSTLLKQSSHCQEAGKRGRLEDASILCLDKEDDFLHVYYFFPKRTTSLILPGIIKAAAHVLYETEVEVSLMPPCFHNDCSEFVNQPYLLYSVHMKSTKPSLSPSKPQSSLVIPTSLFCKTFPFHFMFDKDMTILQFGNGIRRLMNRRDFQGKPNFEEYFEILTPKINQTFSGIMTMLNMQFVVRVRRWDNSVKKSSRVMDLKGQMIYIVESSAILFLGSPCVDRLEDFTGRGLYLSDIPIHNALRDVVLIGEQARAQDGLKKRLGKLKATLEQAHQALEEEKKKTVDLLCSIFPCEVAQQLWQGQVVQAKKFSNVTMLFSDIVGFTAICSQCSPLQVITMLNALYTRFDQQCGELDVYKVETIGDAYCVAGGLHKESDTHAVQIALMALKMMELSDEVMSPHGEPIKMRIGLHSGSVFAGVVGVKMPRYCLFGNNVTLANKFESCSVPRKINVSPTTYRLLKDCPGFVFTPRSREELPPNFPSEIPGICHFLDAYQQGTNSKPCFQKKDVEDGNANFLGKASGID
Experiment: sGC enzyme assay, fluorescence polarisation of labelled cGMP
Type: biochemical
Conditions: human sGC 1 nM, FP assay; concentration able to increase by 5-fold basal cGMP
Method: The activity of soluble guanylate cyclase (sGC) was tested in an assay based on measuring the fluorescent polarisation (FP) signal of fluorescently labelled cGMP. FP increased on interaction with an anti-cGMP antibody as the motility of the molecule was reduced. Newly produced cGMP displaced the interaction giving rise to a decrease in polarisation and FP signal which was equated to enzyme activity. Compounds were incubated with human sGC, anti-cGMP antibody, the GTP substrate and fluorescently labelled cGMP. After a period of one hour the assay was stopped with the addition of EDTA and after a further hour the assay was read.
Human sGC was thawed and resuspended in assay buffer (100 mM TRIS, 10 mM MgCl2, 0.2 mM Tween 20, pH7.4, containing 1:100 dilution of sheep anti-cGMP) to give final concentration of 1 nM in the well. A substrate solution was prepared containing GTP and 8-fluo-cGMP in de-ionized water to a final concentration of 25 μM and 50 nM respectively. Assay plates containing 5 μL of various test compounds and of a standard agonist (50 μM-50 nM) in 1% DMSO as 6 point, four fold dilutions across a 96 well plate were used in the assay. The plate also contained 6 wells of DMSO (1%) to produce high control and a cGMP standard curve (14 nM to 10 μM) to convert FP data to cGMP concentration. 25 μL of enzyme mix and 20 μl of substrate mix described above were added to each well of the plate. Samples were mixed on an orbital shaker and then incubated at room temperature for 1 hour. After this incubation period 5 μl of 0.5M EDTA was added to all wells and the plates were incubated for a further hour at room temperature prior to reading the FP signal in an appropriate reader. For data handling FP data were converted to cGMP concentrations and then fitted using ActivityBase software. The activity of a test compound was determined as the pEC500 value which is the concentration able to increase by 5-fold basal cGMP.

Row | sGC pEC500 | Structure (SMILES)
1 | 7.73 | Cc1cc(OCCCC#N)ccc1COc1ccccc1-c1cccc(-n2ncc(C(=O)O)c2C(F)(F)F)n1 [Example 9, 1-(6-(2-((4-(3-cyanopropoxy)-2-methylbenzyl)oxy)phenyl)pyridin-2-yl)-5-(trifluoromethyl)-1H-pyrazole-4-carboxylic acid]
2 | 7.79 | COCCCOc1ccc(COc2ccccc2-c2cccc(-n3ncc(C(=O)O)c3C(F)(F)F)n2)c(C)c1 [Example 10, 1-(6-(2-((4-(3-methoxypropoxy)-2-methylbenzyl)oxy)phenyl)pyridin-2-yl)-5-(trifluoromethyl)-1H-pyrazole-4-carboxylic acid]
3 | 7.88 | Cc1cc(OCCCn2ccc(C(F)(F)F)n2)ccc1CCc1ccccc1-c1cccc(-n2ncc(C(=O)O)c2C(F)(F)F)n1 [Example 3, 1-(6-(2-(2-methyl-4-(3-(3-(trifluoromethyl)-1H-pyrazol-1-yl)propoxy)phenethyl)phenyl)pyridin-2-yl)-5-(trifluoromethyl)-1H-pyrazole-4-carboxylic acid]

The next lines start with the compound.

Row | Structure (SMILES) | sGC pEC500
4 | Cc1cc(OCCCC(F)(F)F)ccc1CCc1ccccc1-c1cccc(-n2ncc(C(=O)O)c2C(F)(F)F)n1 [Example 1, 1-(6-(2-(2-methyl-4-(4,4,4-trifluorobutoxy)phenethyl)phenyl)pyridin-2-yl)-5-(trifluoromethyl)-1H-pyrazole-4-carboxylic acid] | 6.95
5 | COCCCOc1ccc(COc2ccccc2-c2cccc(-n3ncc(C(=O)O)c3C(F)(F)F)n2)c(F)c1 [Example 6, 1-(6-(2-((2-fluoro-4-(3-methoxypropoxy)benzyl)oxy)phenyl)pyridin-2-yl)-5-(trifluoromethyl)-1H-pyrazole-4-carboxylic acid] | 7.4
6 | O=C(O)c1cnn(-c2cccc(-c3ccccc3OCc3ccc(OCCCC(F)(F)F)cc3F)n2)c1C(F)(F)F [Example 5, 1-(6-(2-((2-fluoro-4-(4,4,4-trifluorobutoxy)benzyl)oxy)phenyl)pyridin-2-yl)-5-(trifluoromethyl)-1H-pyrazole-4-carboxylic acid] | 6.88
7 | Cc1cc(OCCCC(F)(F)F)ccc1COc1ccccc1-c1cccc(-n2ncc(C(=O)O)c2C(F)(F)F)n1 [Example 11, 1-(6-(2-((2-methyl-4-(4,4,4-trifluorobutoxy)benzyl)oxy)phenyl)pyridin-2-yl)-5-(trifluoromethyl)-1H-pyrazole-4-carboxylic acid] | 7.47
